Structures can show the parent of a compound that is named as a salt.
Experiments:
human full-length MKNK1 = biological target: T1, human full-length MKNK1 (Homo sapiens, UniProt Q9BUB5, T385D); test: MKNK1 kinase high ATP assay (TR-FRET-based); format: biochemical; settings: ATP final conc. 2 mM, 15 min preincubation, 30 min reaction at 22° C.
T1 construct: purchased Carna Biosciences 02-145; host or cells: insect cells (baculovirus expression system)
Procedure: MKNK1 Kinase High ATP Assay
MKNK1-inhibitory activity at high ATP of compounds of the present invention after their preincubation with MKNK1 was quantified employing the TR-FRET-based MKNK1 high ATP assay as described in the following paragraphs.
(§1) A recombinant fusion protein of Glutathione-S-Transferase (GST, N-terminally) and human full-length MKNK1 (amino acids 1-424 and T344D of accession number BAA 19885.1), expressed in insect cells using baculovirus expression system and purified via glutathione sepharose affinity chromatography, was purchased from Carna Biosciences (product no 02-145) and used as enzyme. As substrate for the kinase reaction the biotinylated peptide biotin-Ahx-IKKRKLTRRKSLKG (C-terminus in amide form) was used, which can be purchased e.g. from the company Biosyntan (Berlin-Buch, Germany).
(§2) For the assay 50 nL of a 100 fold concentrated solution of the test compound in DMSO was pipetted into a black low volume 384 well microtiter plate (Greiner Bio-One, Frickenhausen, Germany), 2 μL of a solution of MKNK1 in aqueous assay buffer [50 mM HEPES pH 7.5, 5 mM magnesium chloride, 1.0 mM dithiothreitol, 0.005% (v/v) Nonidet-P40 (Sigma)] was added and the mixture was incubated for 15 min at 22° C. to allow pre-binding of the test compounds to the enzyme before the start of the kinase reaction. Then the kinase reaction was started by the addition of 3 μL of a solution of adenosine-tri-phosphate (ATP, 3.3 mM=>final conc. in the 5 μL assay volume is 2 mM) and substrate (0.1 μM=>final conc. in the 5 μL assay volume is 0.06 μM) in assay buffer and the resulting mixture was incubated for a reaction time of 30 min at 22° C. The concentration of MKNK1 was adjusted depending of the activity of the enzyme lot and was chosen appropriate to have the assay in the linear range, typical concentrations were in the range of 0.003 μg/mL. The reaction was stopped by the addition of 5 μL of a solution of TR-FRET detection reagents (5 nM streptavidine-XL665 [Cisbio Bioassays, Codolet, France] and 1 nM anti-ribosomal protein S6 (pSer236)-antibody from Invitrogen [#44921G] and 1 nM LANCE EU-W1024 labeled ProteinG [Perkin-Elmer, product no. AD0071]) in an aqueous EDTA-solution (100 mM EDTA, 0.1% (w/v) bovine serum albumin in 50 mM HEPES pH 7.5).
(§3) The resulting mixture was incubated for 1 h at 22° C. to allow the formation of complex between the phosphorylated biotinylated peptide and the detection reagents. Subsequently the amount of phosphorylated substrate was evaluated by measurement of the resonance energy transfer from the Eu-chelate to the streptavidine-XL. Therefore, the fluorescence emissions at 620 nm and 665 nm after excitation at 350 nm were measured in a TR-FRET reader, e.g. a Rubystar (BMG Labtechnologies, Offenburg, Germany) or a Viewlux (Perkin-Elmer). The ratio of the emissions at 665 nm and at […] was taken as the measure for the amount of phosphorylated substrate. The data were normalised (enzyme reaction without inhibitor=0% inhibition, all other assay components but no enzyme=100% inhibition).

human full-lengt MKNK1 = biological target: T2, human full-lengt MKNK1 (Homo sapiens, UniProt Q9BUB5, T385D); test: MKNK1 kinase assay (MKNK1 TR-FRET assay); format: biochemical; settings: ATP final conc. 10 μM, 15 min preincubation, 45 min reaction at 22° C.
T2 construct: purchased Carna Biosciences 02-145; host or cells: insect cells (baculovirus expression system)
Excerpt: MKNK1-inhibitory activity of compounds of the present invention was quantified employing the MKNK1 TR-FRET assay as described in the following paragraphs.
as §1, with “human full-lengt” for “human full-length”, “was used” for “was used,”, “e.g. form” for “e.g. from”
as §2, with “16.7 μM=>final” for “3.3 mM=>final”, “10 μM)” for “2 mM)”, “45” for “30”, “0.05 μg/ml.” for “0.003 μg/mL.”
as §3, with “inhibition). Usually the test compounds were tested on the same microtiterplate in 11 different concentrations in the range of 20 μM to 0.1 nM (20 μM, 5.9 μM, 1.7 μM, 0.51 μM, 0.15 μM, 44 nM, 13 nM, 3.8 nM, 1.1 nM, 0.33 nM and 0.1 nM, the dilution series prepared separately before the assay on the level of the 100 fold concentrated solutions in DMSO by serial 1:3.4 dilutions) in duplicate values for each concentration and […] were calculated by a 4 parameter fit.” for “inhibition).”

T2 sequence (Q9BUB5 1-424 isoform Q9BUB5-2 T344D): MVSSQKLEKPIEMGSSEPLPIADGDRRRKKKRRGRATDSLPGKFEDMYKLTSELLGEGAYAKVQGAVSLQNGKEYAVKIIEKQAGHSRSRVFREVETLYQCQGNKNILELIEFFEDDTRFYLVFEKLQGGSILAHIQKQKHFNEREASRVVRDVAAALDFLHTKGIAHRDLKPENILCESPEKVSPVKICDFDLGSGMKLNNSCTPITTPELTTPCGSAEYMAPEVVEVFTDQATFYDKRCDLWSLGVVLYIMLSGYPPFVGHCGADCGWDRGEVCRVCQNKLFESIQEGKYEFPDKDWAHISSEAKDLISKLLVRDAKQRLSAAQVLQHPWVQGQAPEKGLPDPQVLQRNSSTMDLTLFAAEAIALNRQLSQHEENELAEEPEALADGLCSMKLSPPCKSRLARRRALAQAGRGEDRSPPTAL
T1 sequence (Q9BUB5 1-424 isoform Q9BUB5-2 T344D): as above

In the case of `N[C@H](COc1ccc2ncc(-c3cc4cnccc4o3)n2n1)c1ccccc1` [Example 1, (1S)-2-{[3-(Furo[3,2-c]pyridin-2-yl)imidazo[1,2-b]pyridazin-6-yl]oxy}-1-phenylethanamine], the IC50 (human full-length MKNK1) is reported as 53 nM and the IC50 (human full-lengt MKNK1) is reported as 17 nM.

Work on `COc1nccc2oc(-c3cnc4ccc(O[C@H]5C[C@H](N)C5)nn34)cc12` [Example 2, trans-3-{[3-(4-Methoxyfuro[3,2-c]pyridin-2-yl)imidazo[1,2-b]pyridazin-6-yl]-oxy}cyclobutanamine] yielded an IC50 (human full-length MKNK1) of 5 nM and an IC50 (human full-lengt MKNK1) of 3 nM.

Molecule `COc1nccc2oc(-c3cnc4ccc(OC[C@@H](C)N)nn34)cc12` [Example 3, (2R)-1-{[3-(4-Methoxyfuro[3,2-c]pyridin-2-yl)imidazo[1,2-b]pyridazin-6-yl]-oxy}propan-2-amine] has an IC50 (human full-length MKNK1) of 27 nM and an IC50 (human full-lengt MKNK1) of 11 nM.

Molecule `COc1nccc2oc(-c3cnc4ccc(OC[C@@H](N)c5ccccc5)nn34)cc12` [Example 4, (1S)-2-{[3-(4-Methoxyfuro[3,2-c]pyridin-2-yl)imidazo[1,2-b]pyridazin-6-yl]oxy}-1-phenylethanamine] has an IC50 (human full-length MKNK1) of 91 nM and an IC50 (human full-lengt MKNK1) of 20 nM.

Molecule `COc1nccc2oc(-c3cnc4ccc(OC[C@H](C)N)nn34)cc12` [Example 5, (2S)-1-{[3-(4-Methoxyfuro[3,2-c]pyridin-2-yl)imidazo[1,2-b]pyridazin-6-yl]-oxy}propan-2-amine] has an IC50 (human full-length MKNK1) of 65 nM and an IC50 (human full-lengt MKNK1) of 21 nM.

Work on `COc1nccc2oc(-c3cnc4ccc(O[C@H](C)CN)nn34)cc12` [Example 6, (2R)-2-{[3-(4-Methoxyfuro[3,2-c]pyridin-2-yl)imidazo[1,2-b]pyridazin-6-yl]-oxy}propan-1-amine] yielded an IC50 (human full-length MKNK1) of 37 nM and an IC50 (human full-lengt MKNK1) of 23 nM.

`N[C@@H](COc1ccc2ncc(-c3cc4cnccc4o3)n2n1)c1ccccc1` [Example 7, (1R)-2-{[3-(Furo[3,2-c]pyridin-2-yl)imidazo[1,2-b]pyridazin-6-yl]oxy}-1-phenylethanamine] showed an IC50 (human full-length MKNK1) of 91 nM and an IC50 (human full-lengt MKNK1) of 25 nM.

For `C[C@H](CN)Oc1ccc2ncc(-c3cc4cnccc4o3)n2n1` [Example 8, (2R)-2-{[3-(Furo[3,2-c]pyridin-2-yl)imidazo[1,2-b]pyridazin-6-yl]oxy}propan-1-amine], the IC50 (human full-length MKNK1) was 136 nM and the IC50 (human full-lengt MKNK1) was 28 nM.

Work on `COc1nccc2oc(-c3cnc4ccc(OC[C@H](N)c5ccccc5)nn34)cc12` [Example 9, (1R)-2-{[3-(4-Methoxyfuro[3,2-c]pyridin-2-yl)imidazo[1,2-b]pyridazin-6-yl]oxy}-1-phenylethanamine] yielded an IC50 (human full-length MKNK1) of 94 nM and an IC50 (human full-lengt MKNK1) of 48 nM.

`COc1nccc2oc(-c3cnc4ccc(OC[C@@H](N)[C@@H](C)OCc5ccccc5)nn34)cc12` [Example 10, (2R,3R)-3-(Benzyloxy)-1-{[3-(4-methoxyfuro[3,2-c]pyridin-2-yl)imidazo[1,2-b]-pyridazin-6-yl]oxy}butan-2-amine] was tested, and the IC50 (human full-length MKNK1) was 62 nM and the IC50 (human full-lengt MKNK1) was 34 nM.

`COc1nccc2oc(-c3cnc4ccc(OC[C@H](N)COCc5ccccc5)nn34)cc12` [Example 11, (2R)-1-(Benzyloxy)-3-{[3-(4-methoxyfuro[3,2-c]pyridin-2-yl)imidazo[1,2-b]-pyridazin-6-yl]oxy}propan-2-amine] showed an IC50 (human full-length MKNK1) of 59 nM and an IC50 (human full-lengt MKNK1) of 17 nM.

In the case of `C[C@H](N)COc1ccc2ncc(-c3cc4ccncc4o3)n2n1` [Example 12, (2S)-1-{[3-(Furo[2,3-c]pyridin-2-yl)imidazo[1,2-b]pyridazin-6-yl]oxy}propan-2-amine], the IC50 (human full-length MKNK1) is reported as 65 nM and the IC50 (human full-lengt MKNK1) is reported as 26 nM.

`N[C@H]1C[C@H](Oc2ccc3ncc(-c4cc5ccncc5o4)n3n2)C1` [Example 13, trans-3-{[3-(Furo[2,3-c]pyridin-2-yl)imidazo[1,2-b]pyridazin-6-yl]oxy}-cyclobutanamine salt with formic acid] gave an IC50 (human full-length MKNK1) of 16 nM and an IC50 (human full-lengt MKNK1) of 5 nM.

In the case of `N[C@H]1C[C@H](Oc2ccc3ncc(-c4cc5cnccc5o4)n3n2)C1` [Example 14, trans-3-{[3-(Furo[3,2-c]pyridin-2-yl)imidazo[1,2-b]pyridazin-6-yl]oxy}cyclobutanamine salt with formic acid], the IC50 (human full-length MKNK1) is reported as 34 nM and the IC50 (human full-lengt MKNK1) is reported as 5 nM.

`COc1nccc2oc(-c3cnc4ccc(OC[C@H](N)CO)nn34)cc12` [Example 15, (2R)-2-Amino-3-{[3-(4-methoxyfuro[3,2-c]pyridin-2-yl)imidazo[1,2-b]pyridazin-6-yl]oxy}propan-1-C1] was tested, and the IC50 (human full-length MKNK1) was 31 nM and the IC50 (human full-lengt MKNK1) was 12 nM.

`COc1nccc2oc(-c3cnc4ccc(OCC(C)CN)nn34)cc12` (stereo not drawn) [Example 16, 3-{[3-(4-Methoxyfuro[3,2-c]pyridin-2-yl)imidazo[1,2-b]pyridazin-6-yl]oxy}-2-methylpropan-1-amine] showed an IC50 (human full-length MKNK1) of 19 nM and an IC50 (human full-lengt MKNK1) of 8 nM.

`C[C@@H](N)COc1ccc2ncc(-c3cc4ncccc4o3)n2n1` [Example 17, (2R)-{[3-(Furo[3,2-b]pyridin-2-yl)imidazo[1,2-b]pyridazin-6-yl]oxy}propan-2-amine] showed an IC50 (human full-length MKNK1) of 127 nM and an IC50 (human full-lengt MKNK1) of 67 nM.

Work on `C[C@H](N)COc1ccc2ncc(-c3cc4c(OC5CCC5)nccc4o3)n2n1` [Example 41, (2S)-1-({3-[4-(Cyclobutyloxy)furo[3,2-c]pyridin-2-yl]imidazo[1,2-b]pyridazin-6-yl}oxy)propan-2-amine] yielded an IC50 (human full-length MKNK1) of 19 nM.

In the case of `C[C@@H](N)COc1ccc2ncc(-c3cc4c(OC5CCC5)nccc4o3)n2n1` [Example 42, (2R)-1-({3-[4-(Cyclobutyloxy)furo[3,2-c]pyridin-2-yl]imidazo[1,2-b]pyridazin-6-yl}oxy)propan-2-amine], the IC50 (human full-length MKNK1) is reported as 26 nM.

Reference: US9643974B2, “Amino-substituted imidazopyridazines” (Bayer Intellectual Property GmbH, priority 2011, dated 2017)
